“Also recorded” adds a separate entry of the source.
What was measured:
[1] = Patient use examples (transdermal patch or topical gel); assay type: in vivo, human
Description: A person who is morbidly obese applies a bimatoprost transdermal skin patch on their arm, which uniformly releases a 5% w/w bimatoprost formulation over a thirty day period. […] The patient loses 6 pounds more than they would have otherwise lost without using the bimatoprost transdermal skin patch. A person applies a 3% w/w bimatoprost gel to their skin once a day. […] A person with elevated blood pressure has been determined by doctors to have prediabetes. In addition to being on a low fat, low sugar diet, the patient uses a transdermal bimatoprost patch which releases a 3% w/w bimatoprost formulation through the dermis and into the blood stream. […] A person is diagnosed with non-alcoholic fatty liver. The patient applies a transdermal bimatoprost patch which releases a 2% w/w bimatoprost formulation. […] A healthy person in an effort to lose weight is on a low fat diet. In order to suppress their appetite, the person applies a bimatoprost transdermal patch which continually releases 1% w/w bimatoprost for 30 days.

[2] = Once a day topical application to rats for six months (subcutaneous fat, body weight); assay type: in vivo; conditions: for subcutaneous fat: topical once a day, six months, ~10% body surface coverage; for body weight (FIG. 2): topical treatment
Description: Bimatoprost (AGN 192024) is a synthetic prostamide which has been used in intraocular pressure lowering therapeutics such as LUMIGAN® 0.03, LUMIGAN® 0.01 and GANFORT®. […] In FIG. 1, bimatoprost was applied topically once per day for 6 months to rats. […] FIG. 2 describes the systemic exposure (topically applied) of bimatoprost by measuring blood levels of the compound after treatment. […] The in vivo action of bimatoprost is likely a dual mechanism to inhibit food intake and suppress replenishment of fat cells during normal turnover. […] Blood was drawn every 2 weeks and the serum was analyzed for leptin levels by luminex assay. […] A cafeteria diet is a high sugar and fat diet with typical “junk food”: […]

pre-adipocyte = assay: Pre-adipocyte differentiation; assay type: cell-based
human pre-adipocytes = assay: Leptin production in human pre-adipocytes; assay type: cell-based; conditions: 1 μM, 8 days, vehicle DMSO
Description: Vehicle is DMSO, bimatoprost treatment at 1 μM. Stimulation of leptin over 8-days of bimatoprost treatment; In FIG. 1, bimatoprost was applied topically once per day for 6 months to rats. […] FIG. 2 describes the systemic exposure (topically applied) of bimatoprost by measuring blood levels of the compound after treatment. […] The in vivo action of bimatoprost is likely a dual mechanism to inhibit food intake and suppress replenishment of fat cells during normal turnover. […] Blood was drawn every 2 weeks and the serum was analyzed for leptin levels by luminex assay. […] A cafeteria diet is a high sugar and fat diet with typical “junk food”: […]

Leptin = assay: Serum leptin levels by luminex assay in male rats on a cafeteria diet; assay type: in vivo
Description: In FIG. 1, bimatoprost was applied topically once per day for 6 months to rats. […] FIG. 2 describes the systemic exposure (topically applied) of bimatoprost by measuring blood levels of the compound after treatment. […] The in vivo action of bimatoprost is likely a dual mechanism to inhibit food intake and suppress replenishment of fat cells during normal turnover. […] Blood was drawn every 2 weeks and the serum was analyzed for leptin levels by luminex assay. […] A cafeteria diet is a high sugar and fat diet with typical “junk food”: […]

[3] = Cafeteria diet induced fatty liver in rats, liver histology; assay type: in vivo; conditions: cafeteria diet 10 weeks
Description: Rats were fed the cafeteria diet for 10 weeks and administered bimatoprost daily. At the end of 10 weeks, livers were resected and examined by histology. […] This has important consequences in the potential treatment of non-alcoholic fatty liver disease (NAFLD).

[4] = Example 1: transdermal skin patch, 5% w/w, thirty days
[5] = Example 3: prediabetes patient, transdermal patch, 3% w/w
[6] = Example 5: transdermal patch, 1% w/w, 30 days

CCNC(=O)CCC/C=C\C[C@@H]1[C@@H](/C=C/[C@@H](O)CCc2ccccc2)[C@H](O)C[C@@H]1O [bimatoprost, Bimatoprost]
leptin levels ([1]; Example 1: morbidly obese person, transdermal skin patch, 5% w/w, thirty days): leptin levels increase
additional weight lost versus no patch [1, 4]: 6 pounds
appetite [1, 4]: suppressed appetite
leptin levels ([1]; Example 2: 3% w/w gel on skin once a day, after several days): elevated leptin levels
appetite ([1]; Example 2: 3% w/w gel once a day): suppresses appetite
body weight ([1]; Example 2: 3% w/w gel once a day, sixty day period): maintains their weight
appetite [1, 5]: reduction in appetite
blood leptin levels [1, 5]: immediate increase in blood leptin levels
body weight [1, 5]: weight loss
lipidosis in the liver ([1]; Example 4: non-alcoholic fatty liver patient, transdermal patch, 2% w/w): reduction in lipidosis in the liver
leptin levels ([1]; Example 5: healthy female on low fat diet, transdermal patch, 1% w/w, 30 days): leptin levels rise
appetite [1, 6]: suppression of their appetite
body weight [1, 6]: greater weight loss
subcutaneous fat at sites distal to the application site (FIG. 1) ([2]; 3% w/v bimatoprost vs vehicle): subcutaneous fat reduction at sites distal to the application site
subcutaneous fat [2]: substantial local subcutaneous fat reduction, as well as reduction at adjunct and distal sites
subcutaneous fat ([2]; listed as Bimatoprost): subcutaneous fat loss at sites distant from the application site
body weight (FIG. 2) [2]: reduction in body weight
body weight (FIG. 2) ([2]; listed as Bimatoprost): reduction in weight over time
differentiation of pre-adipocytes (pre-adipocyte): inhibit differentiation
leptin production (FIG. 3) (human pre-adipocytes): increases Leptin production; also recorded: increase in leptin production
serum leptin levels (Leptin; male rats on cafeteria diet, 0.3% bimatoprost in BSHG formulation topical daily, p<0.01, 2-way ANOVA): elevated levels of Leptin
leptin levels (FIG. 4) (Leptin; rats on a cafeteria diet, topical daily): elevated leptin levels
liver lipidosis ([3]; 0.3% bimatoprost formulation daily): reduced lipidosis as compared to the control
liver lipidosis ([3]; 1% bimatoprost formulation daily): reduced lipidosis as compared to the control
cafeteria diet induced fatty liver changes (FIG. 5) ([3]; topical daily): dose-dependently decreases cafeteria diet induced fatty liver changes; also recorded: inhibited cafeteria diet induced fatty liver disease

Source: patent US20160310505A1, “PROSTAMIDES FOR ENHANCEMENT OF LEPTIN PRODUCTION” (Allergan, Inc., priority 2013, published 2016)
